Assay results: US12214076B2, “Drug delivery vehicles for atherosclerosis nanomedicine” (Northwestern University, priority 2019, dated 2025)
Peptide text beside a SMILES is read from it.

How the values were obtained:
[1] = tested on: J774.2 murine macrophages; format: cell-based, mouse
Protocol: To measure cell metabolic activity, thiazolyl blue tetrazolium bromide (MTT, Sigma-Aldrich) was added to cells at 0.4 mg/mL in complete medium for 4 hours at 37° C. The plates were then aspirated and 100 µL of DMSO added for 10-15 minutes at room temperature on a plate shaker at low speed setting. The plates were run on an Epoch plate reader using absorbance at 560 nm corrected for background at 670 nm. Flow cytometry analysis for iNOS expression followed the methods described above.

[2] = Solubility of LXR agonist without PA; format: physicochemical; conditions: deionized water or PBS
[3] = Dialysis LXR agonist release study; format: physicochemical; conditions: non-encapsulated LXR agonist, PBS, within the first hour
Protocol: LXR-40% ApoA1 PA (1 mM with respect to PA) was dissolved in PBS. […] To each dialysis cup 0.1 mL of sample was added with one cup used for each time-point to be measured. All samples were dialyzed against 4 mL of PBS at 37° C. The total contents of one dialysis cup were isolated and kept at 4° C. until measurement at each time point. […] For LC-MS, a 5 to 95% acetonitrile (0.1% formic acid) gradient was run over 30 min with mobile phase containing 0.1% NH40H. A total ion chromatogram was obtained in MS mode and integrated using Mass Hunter Agilent software. The peak area corresponding to [M-H]− for GW3965 was recorded for each sample in negative ion mode and normalized according to the volume of sample present. Percent encapsulation was determined as follows:
[formula] where NPA is the normalized peak area corresponding to LXR agonist (normalized for solution volume).

LDLR KO mice = test: Atherosclerosis treatment study; format: in vivo, mouse; conditions: both sexes
Protocol: Mouse model of atherosclerosis: To study atherosclerosis, the LDLR KO mouse was used. LDLR KO mice are fed a high fat “western” diet (Teklad TD.88137) starting at 4 weeks of age. This diet consists of 20% fat, 0.2% cholesterol, and 34% high sucrose. LDLR KO mice fed this diet typically develop severe hypercholesterolemia (>800 mg/dL) and hypertriglyceridemia (>300 mg/dL) after only 2 weeks. By 12 weeks on the high fat diet, atherosclerotic lesions are detected in the aortic root and aortic arch on cryosections stained with Oil Red O (Sigma). Atherosclerosis was quantified in the aortic root as a percentage of the aortic root by taking the atherosclerotic area divided by the total aortic root area. Measurements were made with ImageJ software. All protocols for the animal model and procedures in this manuscript were approved by Northwestern University's Institutional Animal Care and Use Committee.
(§1) Blood samples were collected at the end of the treatment study for toxicology analysis. Mice were euthanized three days after their 16th treatment.
(§2) Tissue processing and imaging: Mice were sacrificed and euthanized under inhaled isoflurane anesthesia by diaphragm disruption and exsanguination. Phlebotomy was performed through direct right ventricular cardiac puncture using a 1 mL syringe and 25 G needle. Perfusion was performed through left ventricular cardiac puncture with 10 mL PBS and 10 mL 10% sucrose solution. The lungs, liver, spleen, kidney, aortic root, aortic arch, and descending aorta were harvested and stored in 10% sucrose for 20 minutes. Organs and vessels were then flash-frozen in Optimal Cutting Temperature embedding medium 4583 (Tissue-Tek®) with liquid nitrogen. Frozen specimens were stored at −80° C. and cryosectioned at […]. Confocal microscopy was performed on a Nikon AIR microscope. Two sets of images were acquired with a 10× Plan Fluor NA 0.3 objective. PAs were identified through quantification of the Alexa Fluor® 546 conjugated dye with 561 nm excitation and a 600/50 nm emission filter.
Images were acquired with spectral detection and spectrally unmixed to accurately separate green autofluorescence from the red Alexa Fluor® 546 signal. Brightfield and fluorescent microscopy were performed using a Zeiss Axio Imager.A2 microscope with AxioVision software (release 4.8.2, 06-2010). All confocal and fluorescent sections were mounted with ProGold Diamond mounting media (Sigma). Slides were stained with Oil Red O to image and quantify atherosclerosis under brightfield microscopy. The elastic laminae were identified using the green fluorescent protein (GFP) filter with an exposure time of 3500 ms under 5× magnification. Nanofibers were identified in the aortic root by presence of Alexa Fluor® 546 on the Cy3 filter under 5-10× magnification, and in the internal organs under 20× magnification. Fluorescent pixel quantification in the aortic root and within organs was performed with ImageJ software.
(§3) Statistics: The effect of treatments and sex on atherosclerosis progression in mice was analyzed using one- or two-factor analysis of variance (ANOVA) followed by a post-hoc student's t-test. The toxicological effects of treatments were also analyzed using two-factor ANOVA and a post-hoc student's t-test. Toxicological effects of treatments on liver proteins AST, ALT, and ALP were further analyzed using ordinal logistic regression models of likelihood ratio tests, followed by a post-hoc Wald test

J774.2 mouse macrophages = test: In Vitro Cholesterol Efflux Assay (Example 1); format: cell-based; conditions: two- and threefold higher concentrations of LXR
[4] = Treatment study serum chemistry (toxicology analysis); format: in vivo, mouse; conditions: for Alanine Aminotransferase (ALT) / Alkaline phosphatase / Aspartate Aminotransferase (AST) / Bicarbonate and CO2 / Bilirubin - Conjugated / Bilirubin - Unconjugated / Blood Urea Nitrogen / Cholesterol / Creatine / Creatine Kinase / Globulin / Glucose / Potassium / Sodium / Total Bilirubin / Total Protein: group median, end of 8-week treatment
Protocol: as §1, §2, §3

human recombinant MMP2 = molecular target: T1, human recombinant MMP2 (Homo sapiens, UniProt P08253); test: MMP-Ac2-26 PA cleavage assay; format: biochemical; conditions: 40 nM MMP2, 24 hours, 37° C.
T1 construct: purchased R&D systems
T1 sequence (P08253 110-660): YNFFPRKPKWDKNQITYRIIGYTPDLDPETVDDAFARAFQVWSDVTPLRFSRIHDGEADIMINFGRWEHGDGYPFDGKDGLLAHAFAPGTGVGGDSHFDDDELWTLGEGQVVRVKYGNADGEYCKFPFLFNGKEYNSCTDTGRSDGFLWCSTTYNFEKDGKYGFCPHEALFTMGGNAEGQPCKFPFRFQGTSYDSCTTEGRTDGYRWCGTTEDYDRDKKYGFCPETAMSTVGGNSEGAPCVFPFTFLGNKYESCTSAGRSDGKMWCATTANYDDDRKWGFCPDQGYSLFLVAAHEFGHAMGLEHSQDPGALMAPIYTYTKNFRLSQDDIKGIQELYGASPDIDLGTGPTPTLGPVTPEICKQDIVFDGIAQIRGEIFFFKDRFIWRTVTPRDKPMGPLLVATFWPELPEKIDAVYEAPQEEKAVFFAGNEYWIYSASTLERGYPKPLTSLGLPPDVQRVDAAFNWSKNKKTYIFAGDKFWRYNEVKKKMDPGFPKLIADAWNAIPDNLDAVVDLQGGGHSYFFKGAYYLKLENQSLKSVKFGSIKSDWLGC
Protocol: ROS-Ac2-26 and MMP-Ac2-26 PA cleavage assays: To examine ROS-mediated cleavage, 3-morpholinosydnonimine hydrochloride (SIN-1, Sigma-Aldrich or Abcam) was used. ROS-Ac2-26 PAs were reconstituted to 0.5 mM in phosphate buffer and treated with 100 μM SIN-1 for 24 hours at 37° C. For MMP2/9-mediated cleavage, human recombinant MMP2 (R&D systems, carrier-free) was used, activated with freshly prepared 1 mMp-aminophenylmercuric acetate (APMA, Sigma-Aldrich) for one hour at 37° C. The APMA disrupts the cysteine-zinc bond in MMP2 responsible for enzyme latency by liberation of the sulfhydryl group. 10% MMP-Ac2-26 PA co-assemblies were prepared at 0.5 mM in a cleavage buffer containing 50 mM tricine, 50 mM NaCl, 50 μM ZnCl2, and 10 mM CaCl2) at pH 7.4, and treated with 40 nM human recombinant MMP2 for 24 hours at 37° C. At the end of each time point, the samples were stored at −20° C., effectively stopping the cleavage reactions. Samples were analyzed at room temperature, 0.04-0.3 mg/mL with 0.1% NH4OH using a ThermoFisher Q Exactive HIF-X (ThermoFisher, Bremen, Germany) mass spectrometer coupled with a Waters Acquity H-class liquid chromatograph system. […] All measurements were recorded at a resolution setting of 120,000. […] Injection volume for all samples was […]. Data was analyzed on Xcalibur (ThermoFisher, Breman, Germany).

## CC[C@H](C)[C@H](NC(=O)[C@H](Cc1ccccc1)NC(=O)[C@H](Cc1c[nH]c2ccccc12)NC(=O)[C@H](C)NC(=O)[C@H](CCC(N)=O)NC(=O)[C@H](CCCCN)NC(=O)[C@H](CC(C)C)NC(=O)[C@H](Cc1ccccc1)NC(=O)[C@H](CCC(=O)O)NC(=O)[C@H](CO)NC(=O)[C@@H](NC(=O)[C@H](CCSC)NC(=O)[C@H](C)NC(C)=O)C(C)C)C(=O)N[C@@H](CCC(=O)O)C(=O)N[C@@H](CC(N)=O)C(=O)N[C@@H](CCC(=O)O)C(=O)N[C@@H](CCC(=O)O)C(=O)N[C@@H](CCC(N)=O)C(=O)N[C@@H](CCC(=O)O)C(=O)N[C@@H](Cc1ccc(O)cc1)C(=O)N[C@H](C(=O)N[C@@H](CCC(N)=O)C(=O)N[C@H](C(=O)N[C@H](C(=O)N[C@@H](CCCCN)C(=O)O)C(C)C)[C@@H](C)O)C(C)C [Ac2-26] (Ac-AMVSEFLKQAWFIENEEQEYVQTVK-OH; N-terminus and C-terminus assumed)
[1]
  cellular metabolism (MTT) in comparison to the stimulated control: did not significantly affect cellular metabolism

## Cl.O=C(O)Cc1cccc(OCCCN(Cc2cccc(C(F)(F)F)c2Cl)CC(c2ccccc2)c2ccccc2)c1 [LXR, GW3965]
[2]
  solubility: insoluble
[3]
  release across the dialysis membrane: up to 85%
LDLR KO mice
  reversal of atherosclerosis from baseline levels: approximately 5%
LDLR KO mice; twice per week over eight weeks, percent of atherosclerosis in the aortic root
  atherosclerosis progression in comparison to the PBS control: significantly decreased
J774.2 mouse macrophages
  LXR effects upon macrophage efflux: no significant increases
[4]; All mice
  Alanine Aminotransferase (ALT): 40 U/L
  Alkaline phosphatase: 65.5 U/L
  Aspartate Aminotransferase (AST): 135 U/L
  Bicarbonate and CO2: 12 mmol/L
  Bilirubin - Conjugated: 0.05 mg/dL
  Bilirubin - Unconjugated: 0.3 mg/dL
  Blood Urea Nitrogen: 23 mg/dL
  Cholesterol: 2000.5 mg/dL
  Creatine: 0 U/L
  Creatine Kinase: 137.5 U/L
  Globulin: 2.7 g/dL
  Glucose: 237 mg/dL
  Potassium: 5.2 mmol/L
  Sodium: 139.5 mmol/L
  Total Bilirubin: 0.4 mg/dL
  Total Protein: 5.45 g/dL
[4]; Females
  Alanine Aminotransferase (ALT): 33 U/L
  Alkaline phosphatase: 73 U/L
  Aspartate Aminotransferase (AST): 142 U/L
  Bicarbonate and CO2: 10 mmol/L
  Bilirubin - Conjugated: 0 mg/dL
  Bilirubin - Unconjugated: 0.5 mg/dL
  Blood Urea Nitrogen: 21.5 mg/dL
  Cholesterol: 2029 mg/dL
  Creatine: 0 U/L
  Creatine Kinase: 136 U/L
  Globulin: 2.3 g/dL
  Glucose: 203 mg/dL
  Potassium: 4.6 mmol/L
  Sodium: 140 mmol/L
  Total Bilirubin: 0.6 mg/dL
  Total Protein: 5.4 g/dL
[4]; Males
  Alanine Aminotransferase (ALT): 47 U/L
  Alkaline phosphatase: 41 U/L
  Aspartate Aminotransferase (AST): 102 U/L
  Bicarbonate and CO2: 14 mmol/L
  Bilirubin - Conjugated: 0.1 mg/dL
  Bilirubin - Unconjugated: 0.2 mg/dL
  Blood Urea Nitrogen: 24 mg/dL
  Cholesterol: 1972 mg/dL
  Creatine: 0 U/L
  Creatine Kinase: 138 U/L
  Globulin: 2.8 g/dL
  Glucose: 259 mg/dL
  Potassium: 5.2 mmol/L
  Sodium: 139 mmol/L
  Total Bilirubin: 0.3 mg/dL
  Total Protein: 5.5 g/dL
[4]; female mice
  AST levels in comparison to the PBS control: no significant differences
[4]; male mice
  aspartate aminotransferase (AST) in the blood in comparison to PBS: significantly elevated levels of aspartate aminotransferase (AST)

## C16-V2A2 (SEQ ID NO: 8)-E2-GGGPQGIWGQGK (SEQ ID NO: 1)-AMVSEFLKQAWFIENEEQEYVQTVK (SEQ ID NO: 7)-NH2 (C16-VVAAEEGGGPQGIWGQGKAMVSEFLKQAWFIENEEQEYVQTVK-NH2) [MMP-Ac2-26 PA]
Human recombinant MMP2
  Ac2-26 release from PA nanofibers: released Ac2-26
